Measurements taken from ChEMBL document CHEMBL1201862, “PubChem BioAssay data set” (2004).
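Protocol summary: plate cells (96-well), add compound at 5 concentrations, incubate 48 h, interpolate endpoints linearly. GI50 is the concentration that inhibits growth by half.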 Activity calls are given as the source filed them. Cut-off read from the data, not from the text of the source: active = GI50 up to about 1.1 µM and inactive = higher.

Columns and labels:
Assay in all cases: NCI anticancer screen, dose series, 48 h
K562 = test system: K562
CAKI-1 = test system: CAKI-1
A498 = test system: A498
MOLT-4 = test system: MOLT-4
LOX IMVI = test system: LOX IMVI
HT-29 = test system: HT-29
SF-295 = test system: SF-295
DU-145 = test system: DU-145
SN12C = test system: SN12C
IGROV-1 = test system: IGROV-1
EKVX = test system: EKVX
OVCAR-4 = test system: OVCAR-4
NCI-H522 = test system: NCI-H522
OVCAR-8 = test system: OVCAR-8
SK-MEL-28 = test system: SK-MEL-28
Malme-3M = test system: Malme-3M
NCI-H226 = test system: NCI-H226
RPMI-8226 = test system: RPMI-8226
NCI-H23 = test system: NCI-H23
MDA-N = test system: MDA-N

Measured: GI50

O=[N+]([O-])c1cc(Cl)ccc1S(=O)(=O)c1ccccc1
inactive: K562 65.6 µM | CAKI-1 > 100 µM | A498 > 100 µM | MOLT-4 > 100 µM | LOX IMVI 27.6 µM | HT-29 74.6 µM | SF-295 > 100 µM | DU-145 > 100 µM | SN12C > 100 µM | IGROV-1 > 100 µM | EKVX > 100 µM | OVCAR-4 24.7 µM | NCI-H522 57.4 µM | OVCAR-8 > 100 µM | SK-MEL-28 > 100 µM | Malme-3M 52.8 µM | NCI-H226 67.6 µM | RPMI-8226 > 100 µM | NCI-H23 54.1 µM

CN/N=C(/C=C/c1ccccc1)C(C)C
inactive: K562 > 100 µM | CAKI-1 > 100 µM | MOLT-4 > 100 µM | LOX IMVI > 100 µM | HT-29 > 100 µM | SF-295 > 100 µM | DU-145 > 100 µM | SN12C > 100 µM | IGROV-1 > 100 µM | EKVX > 100 µM | OVCAR-4 > 100 µM | NCI-H522 73.3 µM | MDA-N > 100 µM | OVCAR-8 > 100 µM | SK-MEL-28 > 100 µM | Malme-3M > 100 µM | NCI-H226 > 100 µM | RPMI-8226 > 100 µM | NCI-H23 > 100 µM

Cc1nc2c(n1CCCl)C(=O)c1ccccc1C2=O
inactive: K562 16 µM | MOLT-4 12.9 µM | HT-29 15.8 µM | SF-295 21.4 µM | DU-145 35.4 µM | SN12C 30.3 µM | IGROV-1 11.6 µM | EKVX 53.8 µM | OVCAR-4 14.8 µM | NCI-H522 16.7 µM | MDA-N 18.7 µM | OVCAR-8 17.9 µM | SK-MEL-28 42.8 µM | Malme-3M 5.82 µM | NCI-H226 18.7 µM | RPMI-8226 58.6 µM | NCI-H23 29.9 µM

CC(CC(=O)N1C(=O)C(C)(C)[C@@H](O)[C@H]1CC(C)C(Cl)(Cl)Cl)C(Cl)(Cl)Cl (stereo partly specified)
inactive: K562 > 100 µM | CAKI-1 > 100 µM | A498 > 100 µM | MOLT-4 > 100 µM | LOX IMVI > 100 µM | HT-29 > 100 µM | SF-295 > 100 µM | SN12C > 100 µM | IGROV-1 > 100 µM | EKVX > 100 µM | OVCAR-4 > 100 µM | NCI-H522 > 100 µM | OVCAR-8 > 100 µM | Malme-3M > 100 µM | NCI-H226 > 100 µM | RPMI-8226 > 100 µM

Cc1nc(C)c(N2CCN(S(N)(=O)=O)CC2)c(O)n1
inactive: K562 > 100 µM | CAKI-1 > 100 µM | A498 > 100 µM | MOLT-4 > 100 µM | LOX IMVI > 100 µM | HT-29 > 100 µM | SF-295 > 100 µM | DU-145 > 100 µM | SN12C > 100 µM | IGROV-1 > 100 µM | EKVX > 100 µM | OVCAR-4 > 100 µM | NCI-H522 > 100 µM | OVCAR-8 > 100 µM | SK-MEL-28 > 100 µM | Malme-3M > 100 µM | NCI-H226 > 100 µM | RPMI-8226 > 100 µM | NCI-H23 > 100 µM

CCc1cccc(C)c1N1C(=O)C(=O)C(c2nc3ccccc3o2)/C(=N/NC(=S)NN)C1=O (stereo unspecified)
inactive: K562 > 100 µM | CAKI-1 > 100 µM | A498 > 100 µM | LOX IMVI > 100 µM | HT-29 > 100 µM | SF-295 > 100 µM | SN12C > 100 µM | IGROV-1 > 100 µM | EKVX > 100 µM | OVCAR-4 > 100 µM | NCI-H522 > 100 µM | OVCAR-8 > 100 µM | SK-MEL-28 > 100 µM | Malme-3M > 100 µM | NCI-H226 > 100 µM | RPMI-8226 > 100 µM | NCI-H23 > 100 µM

Nc1ncnc2c1ncn2CCOC(c1ccccc1)P(=O)(O)O (stereo unspecified)
inactive: CAKI-1 > 100 µM | A498 > 100 µM | MOLT-4 > 100 µM | LOX IMVI > 100 µM | HT-29 > 100 µM | SF-295 > 100 µM | SN12C > 100 µM | IGROV-1 > 100 µM | EKVX > 100 µM | NCI-H522 > 100 µM | OVCAR-8 > 100 µM | SK-MEL-28 > 100 µM | Malme-3M > 100 µM | NCI-H226 > 100 µM | NCI-H23 > 100 µM

O=c1nc2n3c4c(cccc4nc-2c(=O)[nH]1)CCC3
inactive: K562 > 100 µM | CAKI-1 > 100 µM | MOLT-4 > 100 µM | LOX IMVI > 100 µM | HT-29 95.9 µM | SF-295 > 100 µM | DU-145 > 100 µM | SN12C > 100 µM | IGROV-1 > 100 µM | EKVX > 100 µM | OVCAR-4 86.7 µM | NCI-H522 27.2 µM | MDA-N > 100 µM | OVCAR-8 > 100 µM | SK-MEL-28 > 100 µM | Malme-3M 21.6 µM | NCI-H226 > 100 µM | RPMI-8226 > 100 µM | NCI-H23 > 100 µM
